Source: ChEMBL document CHEMBL1136901, “Crown-capped imidacloprid: a novel design and insecticidal activity” (Bioorg Med Chem Lett, 2009)

Experiments:
Musca domestica [1] = experiment: Toxicity against Musca domestica Takatsuki assessed as neurological side effects at 1100 ng; type: functional, organism-based
Musca domestica [2] = experiment: Insecticidal activity against Musca domestica Takatsuki in presence of metabolic inhibitor propyl 2-propynyl phenylphosphate; type: functional
Musca domestica [3] = experiment: Insecticidal activity against Musca domestica Takatsuki assessed as mortality at 15 ug applied topically; type: functional
[4] = Octanol-water partition coefficient, log P of the compound; type: physicochemical
Musca domestica [5] = experiment: Insecticidal activity against Musca domestica Takatsuki assessed as mortality injected into thorax measured after 24 hrs; type: functional

| Structure (SMILES) | Activity (Musca domestica [1]) | Activity (Musca domestica [2]) | Activity (Musca domestica [3]) | logP [4] | LD50 (Musca domestica [5]) |
| --- | --- | --- | --- | --- | --- |
| c1ccc2c(c1)OCCOCCOCCOCCO2 | Not toxic | – | – | – | – |
| O=[N+]([O-])/N=C1\N(Cc2ccc(Cl)nc2)CCN1Cc1ccc2c(c1)OCCOCCOCCOCCOCCO2 | – | 4.3 ng | 38% | 0.28 | 17 ng |
| c1ccc2c(c1)OCCOCCOCCOCCOCCO2 | Not toxic | – | – | – | – |
| O=[N+]([O-])/N=C1\NCCN1Cc1ccc(Cl)nc1 [IMIDACLOPRID] | – | – | – | – | 84 ng |
| O=[N+]([O-])/N=C1\N(Cc2ccc(Cl)nc2)CCN1Cc1ccc2c(c1)OCCOCCOCCOCCO2 | – | 4.8 ng | 44% | 0.15 | 25 ng |
